Drawing on PubChem BioAssay AID330 (DTP/NCI, 2004), this text covers T/C for 21 molecules.

Values joined by “and” are separate entries in the source; they are usually repeats but may differ in a detail not shown here. Equal entries are not always repeated. Toxic doses and inconclusive results are not listed. Peptide text beside a SMILES is read from it. * marks the point of attachment. Cbz = O=C(OCc1ccccc1)*

This experiment relates to P388 leukemia ip, CD2F1 mice, survival T/C. Briefly: NCI In Vivo Anticancer Drug Screen. Data for tumor model P388 Leukemia (intraperitoneal) in CD2F1 (CDF1) mice. Conditions: endpoint: median survival time, higher = longer survival. The essentials: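 Mice carrying the transplanted tumor received test compound or vehicle. Survival was recorded in each group, and the value is the treated-group measurement divided by that of the vehicle-treated control group.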

[1] abbreviates: dose: 50.0 mg/kg/injection, schedule: Q01DX009 (ip), vehicle: saline with Tween-80.
The mark [2] stands for this setting: dose: 50.0 mg/kg/injection, schedule: Q01DX005 (ip), vehicle: Klucel (hydroxypropylcellulose) (HPC).
The mark [3] stands for this setting: dose: 100.0 mg/kg/injection, schedule: Q01DX005 (ip), vehicle: Klucel (hydroxypropylcellulose) (HPC).
The mark [4] stands for this setting: dose: 200.0 mg/kg/injection, schedule: Q01DX005 (ip), vehicle: Klucel (hydroxypropylcellulose) (HPC).
The mark [5] stands for this setting: dose: 6.25 mg/kg/injection, schedule: Q01DX005 (ip), vehicle: saline with Tween-80.
Where [6] appears, read: dose: 12.5 mg/kg/injection, schedule: Q01DX005 (ip), vehicle: saline with Tween-80.
Where [7] appears, read: dose: 25.0 mg/kg/injection, schedule: Q01DX005 (ip), vehicle: saline with Tween-80.
[8] abbreviates: dose: 50.0 mg/kg/injection, schedule: Q01DX005 (ip), vehicle: saline with Tween-80.
Where [9] appears, read: dose: 100.0 mg/kg/injection, schedule: Q01DX005 (ip), vehicle: saline with Tween-80.
Where [10] appears, read: dose: 60.0 mg/kg/injection, schedule: Q01DX005 (ip), vehicle: Klucel (hydroxypropylcellulose) (HPC).
[11] abbreviates: dose: 50.0 mg/kg/injection, schedule: Q01DX009 (ip), vehicle: saline.
Where [12] appears, read: dose: 100.0 mg/kg/injection, schedule: Q01DX009 (ip), vehicle: saline.
Setting [13] is: dose: 200.0 mg/kg/injection, schedule: Q01DX005 (ip), vehicle: saline with Tween-80.

As to `CCN(CC)CCSC1OC(=O)c2ccccc21` (stereo not drawn), the T/C runs as follows: (dose: 1.25 mg/kg/injection, schedule: Q01DX009 (ip), vehicle: saline) 104 % of control; (dose: 2.5 mg/kg/injection, schedule: Q01DX009 (ip), vehicle: saline) 103 % of control; (dose: 5.0 mg/kg/injection, schedule: Q01DX009 (ip), vehicle: saline) 109 % of control; (dose: 10.0 mg/kg/injection, schedule: Q01DX009 (ip), vehicle: saline) 109 % of control.
Regarding `CC1(C)N=C(c2ccccc2)C(c2ccccc2)=NC1(C)C`, the T/C reads like this: (dose: 100.0 mg/kg/injection, schedule: Q04DX002 (ip), vehicle: saline) 101 % of control; (dose: 200.0 mg/kg/injection, schedule: Q04DX002 (ip), vehicle: saline) 98 % of control; (dose: 400.0 mg/kg/injection, schedule: Q04DX002 (ip), vehicle: saline) 104 % of control.
Turning to `CCOC1N(c2ccc(Cl)cc2)CN(CCCN(C)C)CC1(C)C` (stereo not drawn), the T/C reads like this: under setting [1], 104 % of control; (dose: 100.0 mg/kg/injection, schedule: Q01DX009 (ip), vehicle: saline with Tween-80) 104 % of control; (dose: 200.0 mg/kg/injection, schedule: Q01DX009 (ip), vehicle: saline with Tween-80) 117 % of control.
On to `COc1cccc2c1C(=O)c1c(O)c3c(c(O)c1C2=O)C[C@@](O)(/C(C)=N/NC(=O)c1ccc(Cl)cc1)C[C@@H]3OC1CC(N)C(O)C(C)O1` (stereo partly drawn), for which the T/C was 110 % of control (dose: 0.12 mg/kg/injection, schedule: Q01DX009 (ip), vehicle: water); 155 % of control (dose: 0.5 mg/kg/injection, schedule: Q01DX009 (ip), vehicle: water); 180 % of control (dose: 1.0 mg/kg/injection, schedule: Q01DX009 (ip), vehicle: water); 161 % of control and 166 % of control (dose: 2.0 mg/kg/injection, schedule: Q01DX009 (ip), vehicle: water); 211 % of control (dose: 4.0 mg/kg/injection, schedule: Q01DX009 (ip), vehicle: water); 181 % of control (dose: 5.0 mg/kg/injection, schedule: Q01DX001 (ip), vehicle: water). Moreover, the T/C reads like this: (dose: 8.0 mg/kg/injection, schedule: Q01DX009 (ip), vehicle: water) 109 % of control; (dose: 10.0 mg/kg/injection, schedule: Q01DX001 (ip), vehicle: water) 192 % of control; (dose: 20.0 mg/kg/injection, schedule: Q01DX001 (ip), vehicle: water) 108 % of control.
`CC(=N\O)/C(C)=N/O.CC(=N\O)/C(C)=N/O.CCCC1CC[N-]CC1.CCCC1CC[N-]CC1.CCCC1CC[N-]CC1.CCCC1CC[N-]CC1.[Cl-].[Cl-].[Cl][Rh][Cl].[Rh+3]`: the T/C (dose: 2.78 mg/kg/injection, schedule: Q01DX009 (ip), vehicle: saline with Tween-80) was 120 % of control.
Consider `COc1ccc(N2C(=O)c3ccc4c5ccc6c7c(ccc(c8ccc(c3c48)C2=O)c75)C(=O)N(C)C6=O)cc1`, for which the T/C by setting is: under setting [2], 97 % of control; under setting [3], 98 % of control; under setting [4], 105 % of control.
Regarding `COC(=O)C(C#N)=C(SC)SC`, the T/C runs as follows: (dose: 12.5 mg/kg/injection, schedule: Q01DX009 (ip), vehicle: saline with Tween-80) 112 % of control; (dose: 25.0 mg/kg/injection, schedule: Q01DX009 (ip), vehicle: saline with Tween-80) 116 % of control; under setting [1], 103 % of control and 91 % of control.
In the case of `COc1cccc(/C=C/C(C)=N/NC(N)=S)c1`, the T/C runs as follows: under setting [5], 107 % of control; under setting [6], 107 % of control; under setting [7], 111 % of control; under setting [8], 118 % of control; under setting [9], 101 % of control.
On to `COc1cc(NCCCCCCNC(C)C)c2ncccc2c1`, for which the T/C is, setting by setting: under setting [5], 100 % of control; under setting [6], 102 % of control; under setting [7], 95 % of control.
Take `Nc1nc(N)c(N2CCN(Cc3ccccc3)CC2)c(Cl)n1`: the T/C is 101 % of control (dose: 15.0 mg/kg/injection, schedule: Q01DX005 (ip), vehicle: Klucel (hydroxypropylcellulose) (HPC)); 99 % of control (dose: 30.0 mg/kg/injection, schedule: Q01DX005 (ip), vehicle: Klucel (hydroxypropylcellulose) (HPC)); 99 % of control and 104 % of control under setting [10].
For `CC(C)c1nccn1Cc1c(Cl)cccc1Cl`, the T/C by setting is: (dose: 50.0 mg/kg/injection, schedule: Q01DX009 (ip), vehicle: Klucel (hydroxypropylcellulose) (HPC)) 102 % of control; (dose: 100.0 mg/kg/injection, schedule: Q01DX009 (ip), vehicle: Klucel (hydroxypropylcellulose) (HPC)) 95 % of control; (dose: 200.0 mg/kg/injection, schedule: Q01DX009 (ip), vehicle: Klucel (hydroxypropylcellulose) (HPC)) 96 % of control.
For the molecule `O=C(OCCCCI)c1ccccc1`, the T/C (dose: 25.0 mg/kg/injection, schedule: Q01DX009 (ip), vehicle: saline + Tween-80 + alcohol) is 105 % of control; the T/C (dose: 50.0 mg/kg/injection, schedule: Q01DX009 (ip), vehicle: saline + Tween-80 + alcohol) was 103 % of control; the T/C (dose: 100.0 mg/kg/injection, schedule: Q01DX009 (ip), vehicle: saline + Tween-80 + alcohol) is 104 % of control; the T/C (dose: 2000.0 mg/kg/injection, schedule: Q01DX009 (ip), vehicle: saline + Tween-80 + alcohol) is 114 % of control.
In the case of `C1CCC(C2CCCC[N-]2)[N-]C1.C1CCC(C2CCCC[N-]2)[N-]C1.[Cl][Co][Cl]` (stereo not drawn), the T/C runs as follows: under setting [11], 100 % of control; under setting [12], 109 % of control.
In the case of `CCC(C)C(NC(=O)OCc1ccccc1)C(=O)NC(CC(C)C)C(=O)O` (stereo not drawn) (Cbz-Ile-Leu-OH; configuration not given here), the T/C under setting [2] was 114 % of control, the T/C under setting [3] is 99 % of control and the T/C under setting [4] was 99 % of control.
With `Cn1c(-c2ccc(Br)cc2)cc2[nH]c(=S)nc(N)c2c1=O`, the T/C under setting [7] was 105 % of control, the T/C under setting [8] is 100 % of control, the T/C under setting [9] was 102 % of control and the T/C under setting [13] was 96 % of control.
`CCOC(=O)/N=[N+](\[O-])c1cccc([N+](=O)[O-])c1`: the T/C by setting is: (dose: 100.0 mg/kg/injection, schedule: Q01DX001 (ip), vehicle: saline with Tween-80) 103 % of control; (dose: 200.0 mg/kg/injection, schedule: Q01DX001 (ip), vehicle: saline with Tween-80) 93 % of control.
`Nc1cccc(C(=O)O)c1O`: the T/C was 100 % of control under setting [11]; 106 % of control under setting [12]; 104 % of control (dose: 200.0 mg/kg/injection, schedule: Q01DX009 (ip), vehicle: saline).
Consider `COC(=O)C1CCCCOCCOCCOCCOCCOCCCCCC1=O` (stereo not drawn), for which the T/C reads like this: under setting [8], 102 % of control; under setting [9], 102 % of control; under setting [13], 94 % of control.
Take `COc1ccc(-c2cc(-c3ccc(OC)cc3OC)[n+](C)c(-c3ccc(OC)cc3OC)c2)cc1`: the T/C (dose: 0.78 mg/kg/injection, schedule: Q01DX009 (ip), vehicle: saline with Tween-80) was 124 % of control and the T/C (dose: 1.56 mg/kg/injection, schedule: Q01DX009 (ip), vehicle: saline with Tween-80) is 124 % of control.
With `COc1cccc2c1C(=O)c1c(O)c3c(c(O)c1C2=O)CC(O)(C(C)=O)CC3OC1CC(N)C(O)C(C)O1` (stereo not drawn) (tested in a mixture with another compound), the T/C is 105 % of control and 110 % of control and 114 % of control (dose: 4.69 mg/kg/injection, schedule: Q04DX003 (ip), vehicle: water); 114 % of control and 124 % of control and 112 % of control (dose: 9.38 mg/kg/injection, schedule: Q04DX003 (ip), vehicle: water); 118 % of control and 103 % of control (dose: 9.4 mg/kg/injection, schedule: Q04DX003 (ip), vehicle: water); 114 % of control and 112 % of control and 116 % of control (dose: 18.75 mg/kg/injection, schedule: Q04DX003 (ip), vehicle: water); 114 % of control and 124 % of control and 118 % of control (dose: 37.5 mg/kg/injection, schedule: Q04DX003 (ip), vehicle: water); 109 % of control [middle of 6 runs] (dose: 75.0 mg/kg/injection, schedule: Q04DX003 (ip), vehicle: water). For the same molecule, where the note is “dose: 150.0 mg/kg/injection, schedule: Q04DX003 (ip), vehicle: water”, the T/C is 91 % of control and 98 % of control.
For the molecule `Brc1ccc2c(ccc3nc4nnnn4nc32)c1`, the T/C under setting [10] is 94 % of control; the T/C (dose: 120.0 mg/kg/injection, schedule: Q01DX005 (ip), vehicle: Klucel (hydroxypropylcellulose) (HPC)) is 90 % of control; the T/C (dose: 240.0 mg/kg/injection, schedule: Q01DX005 (ip), vehicle: Klucel (hydroxypropylcellulose) (HPC)) is 86 % of control.
